Test results taken from patent publication US11780845B2 (Relay Therapeutics, Inc., priority 2019, dated 2023).

Each compound was assayed against FGFR2 (Homo sapiens (Human), UniProt P21802) (assay: FGFR2 Biochemical Caliper Assay). Conditions: not given.
Description: Compounds of the present invention were also tested in a FGFR2 Biochemical Caliper Assay. Compounds were prepared in 10 mM DMSO solution and serially diluted into 11 concentrations by 3-fold dilution. […] 5 uL of ATP solution (100 uM) was added to start the reaction and the plate was incubated for 90 minutes, then 70 uL of stopping buffer (0.5M EDTA) was added to terminate the reaction. Each well was analyzed using EZ reader.

FGFR2, sequence (P21802 22-821): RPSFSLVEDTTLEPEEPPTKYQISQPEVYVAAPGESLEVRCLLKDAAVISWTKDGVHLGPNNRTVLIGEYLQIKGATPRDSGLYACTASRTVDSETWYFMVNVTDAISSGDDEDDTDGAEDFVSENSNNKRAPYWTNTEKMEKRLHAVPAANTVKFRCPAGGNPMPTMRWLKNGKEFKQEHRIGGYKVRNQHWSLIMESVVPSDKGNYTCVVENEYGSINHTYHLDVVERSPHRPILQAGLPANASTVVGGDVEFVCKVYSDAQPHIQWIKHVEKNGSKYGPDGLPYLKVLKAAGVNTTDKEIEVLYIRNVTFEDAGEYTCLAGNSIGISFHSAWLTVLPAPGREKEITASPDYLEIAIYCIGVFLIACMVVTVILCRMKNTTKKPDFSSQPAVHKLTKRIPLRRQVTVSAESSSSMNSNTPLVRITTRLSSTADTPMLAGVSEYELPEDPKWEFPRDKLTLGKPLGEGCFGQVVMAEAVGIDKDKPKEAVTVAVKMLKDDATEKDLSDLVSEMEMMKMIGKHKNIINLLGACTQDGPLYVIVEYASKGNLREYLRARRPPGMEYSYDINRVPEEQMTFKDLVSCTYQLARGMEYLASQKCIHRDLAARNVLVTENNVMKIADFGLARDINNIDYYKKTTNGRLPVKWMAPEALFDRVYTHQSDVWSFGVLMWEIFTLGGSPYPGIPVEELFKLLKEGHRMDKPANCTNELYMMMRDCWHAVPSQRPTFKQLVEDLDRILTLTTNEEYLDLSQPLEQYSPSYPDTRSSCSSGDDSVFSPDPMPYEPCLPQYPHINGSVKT

SMILES | IC50
C=C(C)C(=O)Nc1ccc(-c2c(-c3ccc(C(=O)N4CCC[C@@H](OC)C4)cc3)c3c(N)ncnc3n2C)cc1 [Example 388] | 250 to 1000 nM
C=C(C)C(=O)Nc1ccc(-c2c(-c3ccc(Oc4ncc(F)cn4)c(OC)c3)c3c(N)ncnc3n2C)cc1 [Example 448] | 250 to 1000 nM
C=CC(=O)N1CCC(c2c(-c3ccc(Oc4ncccn4)cc3)c3c(N)ncnc3n2C2CCOCC2)C1 (centres unmarked) [Example 704] | 250 to 1000 nM
C=C(C)C(=O)Nc1ccc(-c2c(-c3ccc(-c4ncco4)nc3)c3c(N)ncnc3n2C)cc1 [Example 313] | 1000 to 100000 nM
C=CC(=O)N1CCC(c2c(-c3ccc(OCC4CC4)cc3)c3c(N)ncnc3n2C)C1 (centres unmarked) [Example 734] | 100 to 250 nM
C=C(C)C(=O)N1CCC(n2cc(-c3c(-c4ccc(Oc5cccc(C)n5)cc4)c4c(N)ncnc4n3C)cn2)CC1 [Example 622] | 250 to 1000 nM
C=C(C)C(=O)Nc1ccc(-c2c(-c3ccc(C(=O)N4CC5CCCC5C4)cc3)c3c(N)ncnc3n2C)cc1 (centres unmarked) [Example 154] | 100 to 250 nM
C=CC(=O)N1CCC(c2c(-c3ccc(C(=O)C4CC4)cc3)c3c(N)ncnc3n2C)C1 (centres unmarked) [Example 761] | 100 to 250 nM
C=C(C)C(=O)Nc1ccc(-c2c(-c3ccc(Oc4ncc(OC)cn4)c(F)c3)c3c(N)ncnc3n2C)cc1 [Example 449] | 250 to 1000 nM
C=CC(=O)N1CCC(n2nc(-c3c(-c4ccc(Oc5cccc(C)n5)c(OC)c4)c4c(N)ncnc4n3C)cc2C)CC1 [Example 684] | 1000 to 100000 nM
C=C(C)C(=O)Nc1ccc(-c2c(-c3ccc(Oc4ccn(C)n4)c(OC)c3)c3c(N)ncnc3n2C)cc1 [Example 100] | 250 to 1000 nM
C=CC(=O)N1CCC(c2c(-c3ccc(C(=O)C4CCCC4)cc3)c3c(N)ncnc3n2C)C1 (centres unmarked) [Example 784] | 1000 to 100000 nM
C=CC(=O)N(C)c1ccc(-c2[nH]c3ncnc(N)c3c2-c2ccc(Oc3cccc(C)n3)cc2)cc1 [Example 777] | 1000 to 100000 nM

More lines, now with the values ahead:

IC50 | SMILES
< 100 nM | C=C(C)C(=O)Nc1ccc(-c2c(-c3ccc(C(=O)NC4(COC)CCC4)cc3)c3c(N)ncnc3n2C)cc1 [Example 365]
< 100 nM | C=C(C)C(=O)Nc1ccc(-c2c(-c3cc(F)c(Oc4ncc(C)cn4)c(F)c3)c3c(N)ncnc3n2C)cc1 [Example 423]
100 to 250 nM | C=C(C)C(=O)Nc1ccc(-c2c(-c3ccc(C(=O)NCc4ncon4)cc3)c3c(N)ncnc3n2C)cc1 [Example 282]
< 100 nM | C=CC(=O)Nc1ccc(-c2c(-c3ccc(C(=O)N4CCCC4)cc3)c3c(N)ncnc3n2C)cc1 [Example 128]
< 100 nM | C=C(C)C(=O)Nc1ccc(-c2c(-c3ccc(Oc4ncc(F)cn4)c(F)c3)c3c(N)ncnc3n2C)cc1 [Example 116]
< 100 nM | C=CC(=O)Nc1ccc(-c2c(-c3ccc(Oc4cccc(C)n4)c(OC)c3)c3c(N)ncnc3n2C)cc1 [Example 1]
< 100 nM | C=CC(=O)Nc1ccc(-c2c(-c3ccc(Oc4ccc(C)c(C)n4)c(OC)c3)c3c(N)ncnc3n2C)cc1 [Example 45]
< 100 nM | C=C(C)C(=O)Nc1ccc(-c2c(-c3ccc(Oc4nccc(C)n4)cc3F)c3c(N)ncnc3n2C)c(F)c1 [Example 543]
< 100 nM | C=CC(=O)N1CCC(c2[nH]c3ncnc(N)c3c2-c2ccc(Oc3ncccn3)cc2)C1 (centres unmarked) [Example 709]
< 100 nM | C=CC(=O)N1CCC(c2c(-c3ccc(Oc4cccc(C)n4)cc3)c3c(N)ncnc3n2C)C1 (centres unmarked) [Example 645]
< 100 nM | C=C(C)C(=O)Nc1ccc(-c2c(-c3ccc(Oc4cccc(C)n4)c(C#N)c3)c3c(N)ncnc3n2C)cc1 [Example 445]
< 100 nM | C=CC(=O)N1CCC(n2cc(-c3c(-c4ccc(Oc5cccc(C)n5)cc4)c4c(N)ncnc4n3C)cn2)CC1 [Example 608]
< 100 nM | C=CC(=O)N1CCC(n2cc(-c3c(-c4ccc(Oc5ccccc5)cc4)c4c(N)ncnc4n3C)cn2)CC1 [Example 602]
< 100 nM | C=C(C)C(=O)Nc1ccc(-c2c(-c3ccc(Oc4nccc(OC)n4)c(F)c3)c3c(N)ncnc3n2C)cc1 [Example 507]
< 100 nM | C=C(C)C(=O)Nc1ccc(-c2c(-c3ccc(C(=O)N4CCCC4)cc3)c3c(N)ncnc3n2C)c(F)c1 [Example 355]

The compounds below were run on SNU16 cells (assay: SNU16 Cancer Cell Line Proliferation Assay). Conditions: Homo sapiens; SNU-16 cells.
Type: cell-based
Summary of the method: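 SNU16 cells were seeded, held 24 h at 37 degrees, then dosed with an 11-point 3-fold dilution series prepared from a 10 mM DMSO stock. After 96 h incubation, viability was read by CellTiter Glo luminescence.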

SMILES | IC50
C=C(C)C(=O)Nc1ccc(-c2c(-c3ccc(C(=O)N4CCC[C@@H](OC)C4)cc3)c3c(N)ncnc3n2C)cc1 [Example 388] | 100 to 250 nM
C=C(C)C(=O)Nc1ccc(-c2c(-c3ccc(Oc4ncc(F)cn4)c(OC)c3)c3c(N)ncnc3n2C)cc1 [Example 448] | 100 to 250 nM
C=CC(=O)N1CCC(c2c(-c3ccc(Oc4ncccn4)cc3)c3c(N)ncnc3n2C2CCOCC2)C1 (centres unmarked) [Example 704] | 100 to 250 nM
C=C(C)C(=O)Nc1ccc(-c2c(-c3ccc(-c4ncco4)nc3)c3c(N)ncnc3n2C)cc1 [Example 313] | 250 to 1000 nM
C=CC(=O)N1CCC(c2c(-c3ccc(OCC4CC4)cc3)c3c(N)ncnc3n2C)C1 (centres unmarked) [Example 734] | ≤ 100 nM
C=C(C)C(=O)N1CCC(n2cc(-c3c(-c4ccc(Oc5cccc(C)n5)cc4)c4c(N)ncnc4n3C)cn2)CC1 [Example 622] | 1000 to 100000 nM
C=C(C)C(=O)Nc1ccc(-c2c(-c3ccc(C(=O)N4CC5CCCC5C4)cc3)c3c(N)ncnc3n2C)cc1 (centres unmarked) [Example 154] | ≤ 100 nM
C=CC(=O)N1CCC(c2c(-c3ccc(C(=O)C4CC4)cc3)c3c(N)ncnc3n2C)C1 (centres unmarked) [Example 761] | 100 to 250 nM
C=C(C)C(=O)Nc1ccc(-c2c(-c3ccc(Oc4ncc(OC)cn4)c(F)c3)c3c(N)ncnc3n2C)cc1 [Example 449] | 100 to 250 nM
C=CC(=O)N1CCC(n2nc(-c3c(-c4ccc(Oc5cccc(C)n5)c(OC)c4)c4c(N)ncnc4n3C)cc2C)CC1 [Example 684] | 1000 to 100000 nM
C=C(C)C(=O)Nc1ccc(-c2c(-c3ccc(Oc4ccn(C)n4)c(OC)c3)c3c(N)ncnc3n2C)cc1 [Example 100] | 100 to 250 nM
C=CC(=O)N1CCC(c2c(-c3ccc(C(=O)C4CCCC4)cc3)c3c(N)ncnc3n2C)C1 (centres unmarked) [Example 784] | 1000 to 100000 nM
C=CC(=O)N(C)c1ccc(-c2[nH]c3ncnc(N)c3c2-c2ccc(Oc3cccc(C)n3)cc2)cc1 [Example 777] | 1000 to 100000 nM

Next, values leading:

IC50 | SMILES
≤ 100 nM | C=C(C)C(=O)Nc1ccc(-c2c(-c3ccc(C(=O)NC4(COC)CCC4)cc3)c3c(N)ncnc3n2C)cc1 [Example 365]
100 to 250 nM | C=C(C)C(=O)Nc1ccc(-c2c(-c3cc(F)c(Oc4ncc(C)cn4)c(F)c3)c3c(N)ncnc3n2C)cc1 [Example 423]
250 to 1000 nM | C=C(C)C(=O)Nc1ccc(-c2c(-c3ccc(C(=O)NCc4ncon4)cc3)c3c(N)ncnc3n2C)cc1 [Example 282]
≤ 100 nM | C=CC(=O)Nc1ccc(-c2c(-c3ccc(C(=O)N4CCCC4)cc3)c3c(N)ncnc3n2C)cc1 [Example 128]
≤ 100 nM | C=C(C)C(=O)Nc1ccc(-c2c(-c3ccc(Oc4ncc(F)cn4)c(F)c3)c3c(N)ncnc3n2C)cc1 [Example 116]
≤ 100 nM | C=CC(=O)Nc1ccc(-c2c(-c3ccc(Oc4cccc(C)n4)c(OC)c3)c3c(N)ncnc3n2C)cc1 [Example 1]
≤ 100 nM | C=CC(=O)Nc1ccc(-c2c(-c3ccc(Oc4ccc(C)c(C)n4)c(OC)c3)c3c(N)ncnc3n2C)cc1 [Example 45]
≤ 100 nM | C=C(C)C(=O)Nc1ccc(-c2c(-c3ccc(Oc4nccc(C)n4)cc3F)c3c(N)ncnc3n2C)c(F)c1 [Example 543]
≤ 100 nM | C=CC(=O)N1CCC(c2[nH]c3ncnc(N)c3c2-c2ccc(Oc3ncccn3)cc2)C1 (centres unmarked) [Example 709]
≤ 100 nM | C=CC(=O)N1CCC(c2c(-c3ccc(Oc4cccc(C)n4)cc3)c3c(N)ncnc3n2C)C1 (centres unmarked) [Example 645]
≤ 100 nM | C=C(C)C(=O)Nc1ccc(-c2c(-c3ccc(Oc4cccc(C)n4)c(C#N)c3)c3c(N)ncnc3n2C)cc1 [Example 445]
≤ 100 nM | C=CC(=O)N1CCC(n2cc(-c3c(-c4ccc(Oc5cccc(C)n5)cc4)c4c(N)ncnc4n3C)cn2)CC1 [Example 608]
≤ 100 nM | C=CC(=O)N1CCC(n2cc(-c3c(-c4ccc(Oc5ccccc5)cc4)c4c(N)ncnc4n3C)cn2)CC1 [Example 602]
≤ 100 nM | C=C(C)C(=O)Nc1ccc(-c2c(-c3ccc(Oc4nccc(OC)n4)c(F)c3)c3c(N)ncnc3n2C)cc1 [Example 507]
≤ 100 nM | C=C(C)C(=O)Nc1ccc(-c2c(-c3ccc(C(=O)N4CCCC4)cc3)c3c(N)ncnc3n2C)c(F)c1 [Example 355]
